test system: HIV NL4-3 wt; assay: MT4 antiviral assay, NL4-3 strain wild type; type: cell-based, HIV-1; conditions: Human immunodeficiency virus 1, NL43; MT4 cells; read-out: EC50 NL4-3 wt

SMILES	EC50
CC(C)C1=C2[C@H]3CC[C@@H]4[C@@]5(C)CC[C@H](OC(=O)CC(C)(C)C(=O)O)C(C)(C)[C@@H]5CC[C@@]4(C)[C@]3(C)CC[C@@]2([C@@H](O)CN2CCc3ccccc3C2)CC1=O [Example 63, 4-(((3aR,5aR,5bR,7aR,9S,11aR,11bR,13aS)-3a-((R)-2-(3,4-dihydroisoquinolin-2(1H)-yl)-1-hydroxyethyl)-1-isopropyl-5a,5b,8,8,11a-pentamethyl-2-oxo-3,3a,4,5,5a,5b,6,7,7a,8,9,10,11,11a,11b,12,13,13a-octadecahydro-2H-cyclopenta[a]chrysen-9-yl)oxy)-2,2-dimethyl-4-oxobutanoic acid]	3.2 nM
CC(C)C1=C2[C@H]3CC[C@@H]4[C@@]5(C)CC[C@H](OC(=O)CC(C)(C)C(=O)O)C(C)(C)[C@@H]5CC[C@@]4(C)[C@]3(C)CC[C@@]2([C@H](O)CN2CCc3ccccc3C2)CC1=O [Example 64, 4-(((3aR,5aR,5bR,7aR,9S,11aR,11bR,13aS)-3a-((S)-2-(3,4-dihydroisoquinolin-2(1H)-yl)-1-hydroxyethyl)-1-isopropyl-5a,5b,8,8,11a-pentamethyl-2-oxo-3,3a,4,5,5a,5b,6,7,7a,8,9,10,11,11a,11b,12,13,13a-octadecahydro-2H-cyclopenta[a]chrysen-9-yl)oxy)-2,2-dimethyl-4-oxobutanoic acid]	7.2 nM
CC(C)C1=C2[C@H]3CC[C@@H]4[C@@]5(C)CC[C@H](OC(=O)CC(C)(C)C(=O)O)C(C)(C)[C@@H]5CC[C@@]4(C)[C@]3(C)CC[C@@]2(CCNCc2ccc(Cl)cc2)CC1 [Example 66, 4-(((3aR,5aR,5bR,7aR,9S,11aR,11bR,13aS)-3a-(2-((4-chlorobenzyl)amino)ethyl)-1-isopropyl-5a,5b,8,8,11a-pentamethyl-3,3a,4,5,5a,5b,6,7,7a,8,9,10,11,11a,11b,12,13,13a-octadecahydro-2H-cyclopenta[a]chrysen-9-yl)oxy)-2,2-dimethyl-4-oxobutanoic acid]	9.2 nM
CC(C)C1=C2[C@H]3CC[C@@H]4[C@@]5(C)CC[C@H](OC(=O)CC(C)(C)C(=O)O)C(C)(C)[C@@H]5CC[C@@]4(C)[C@]3(C)CC[C@@]2([C@H](O)CNCC2CCCCC2)CC1 [Example 67, 4-(((3aS,5aR,5bR,7aR,9S,11aR,11bR,13aS)-3a-((S)-2-((cyclohexylmethyl)amino)-1-hydroxyethyl)-1-isopropyl-5a,5b,8,8,11a-pentamethyl-3,3a,4,5,5a,5b,6,7,7a,8,9,10,11,11a,11b,12,13,13a-octadecahydro-2H-cyclopenta[a]chrysen-9-yl)oxy)-2,2-dimethyl-4-oxobutanoic acid]	136 nM
CC(C)C1=C2[C@H]3CC[C@@H]4[C@@]5(C)CC[C@H](OC(=O)CC(C)(C)C(=O)O)C(C)(C)[C@@H]5CC[C@@]4(C)[C@]3(C)CC[C@@]2([C@H](O)CNC2CCCCC2)CC1=O [Example 68, 4-(((3aR,5aR,5bR,7aR,9S,11aR,11bR,13aS)-3a-((S)-2-(cyclohexylamino)-1-hydroxyethyl)-1-isopropyl-5a,5b,8,8,11a-pentamethyl-2-oxo-3,3a,4,5,5a,5b,6,7,7a,8,9,10,11,11a,11b,12,13,13a-octadecahydro-2H-cyclopenta[a]chrysen-9-yl)oxy)-2,2-dimethyl-4-oxobutanoic acid]	10.5 nM
CC(=O)O[C@H](CN(CCN(C)C)Cc1ccc(F)cc1)[C@@]12CC[C@]3(C)[C@H](CC[C@@H]4[C@@]5(C)CC[C@H](OC(=O)CC(C)(C)C(=O)O)C(C)(C)[C@@H]5CC[C@]43C)C1=C(C(C)C)C(=O)C2 [Example 70, 4-(((3aR,5aR,5bR,7aR,9S,11aR,11bR,13aS)-3a-((S)-1-acetoxy-2-((2-(dimethylamino)ethyl)(4-fluorobenzyl)amino)ethyl)-1-isopropyl-5a,5b,8,8,11a-pentamethyl-2-oxo-3,3a,4,5,5a,5b,6,7,7a,8,9,10,11,11a,11b,12,13,13a-octadecahydro-2H-cyclopenta[a]chrysen-9-yl)oxy)-2,2-dimethyl-4-oxobutanoic acid]	1.6 nM
CC(=O)O[C@@H](CN(CCN(C)C)Cc1ccc(F)cc1)[C@@]12CC[C@]3(C)[C@H](CC[C@@H]4[C@@]5(C)CC[C@H](OC(=O)CC(C)(C)C(=O)O)C(C)(C)[C@@H]5CC[C@]43C)C1=C(C(C)C)C(=O)C2 [Example 71, 4-(((3aR,5aR,5bR,7aR,9S,11aR,11bR,13aS)-3a-((R)-1-acetoxy-2-((2-(dimethylamino)ethyl)(4-fluorobenzyl)amino)ethyl)-1-isopropyl-5a,5b,8,8,11a-pentamethyl-2-oxo-3,3a,4,5,5a,5b,6,7,7a,8,9,10,11,11a,11b,12,13,13a-octadecahydro-2H-cyclopenta[a]chrysen-9-yl)oxy)-2,2-dimethyl-4-oxobutanoic acid]	31.2 nM
CC(C)C1=C2[C@H]3CC[C@@H]4[C@@]5(C)CC[C@H](OC(=O)CC(C)(C)CC(=O)O)C(C)(C)[C@@H]5CC[C@@]4(C)[C@]3(C)CC[C@@]2([C@@H](O)CNCc2ccc(Cl)cc2)CC1=O [Example 72, 5-(((3aR,5aR,5bR,7aR,9S,11aR,11bR,13aS)-3a-((R)-2-((4-chlorobenzyl)amino)-1-hydroxyethyl)-1-isopropyl-5a,5b,8,8,11a-pentamethyl-2-oxo-3,3a,4,5,5a,5b,6,7,7a,8,9,10,11,11a,11b,12,13,13a-octadecahydro-2H-cyclopenta[a]chrysen-9-yl)oxy)-3,3-dimethyl-5-oxopentanoic acid]	5.1 nM
CC(C)C1=C2[C@H]3CC[C@@H]4[C@@]5(C)CC[C@H](OC(=O)CC(C)(C)CC(=O)O)C(C)(C)[C@@H]5CC[C@@]4(C)[C@]3(C)CC[C@@]2([C@H](O)CNCc2ccc(Cl)cc2)CC1=O [Example 73, 5-(((3aR,5aR,5bR,7aR,9S,11aR,11bR,13aS)-3a-((S)-2-((4-chlorobenzyl)amino)-1-hydroxyethyl)-1-isopropyl-5a,5b,8,8,11a-pentamethyl-2-oxo-3,3a,4,5,5a,5b,6,7,7a,8,9,10,11,11a,11b,12,13,13a-octadecahydro-2H-cyclopenta[a]chrysen-9-yl)oxy)-3,3-dimethyl-5-oxopentanoic acid]	31.8 nM
CC(C)C1=C2[C@H]3CC[C@@H]4[C@@]5(C)CC[C@H](OC(=O)CC(C)(C)C(=O)O)C(C)(C)[C@@H]5CC[C@@]4(C)[C@]3(C)CC[C@@]2([C@H](O)CN(CCN(C)C)Cc2ccc(Cl)cc2Cl)CC1=O [Example 74, 4-(((3aR,5aR,5bR,7aR,9S,11aR,11bR,13aS)-3a-((S)-2-((2,4-dichlorobenzyl)(2-(dimethylamino)ethyl)amino)-1-hydroxyethyl)-1-isopropyl-5a,5b,8,8,11a-pentamethyl-2-oxo-3,3a,4,5,5a,5b,6,7,7a,8,9,10,11,11a,11b,12,13,13a-octadecahydro-2H-cyclopenta[a]chrysen-9-yl)oxy)-2,2-dimethyl-4-oxobutanoic acid]	2.9 nM
CC(C)C1=C2[C@H]3CC[C@@H]4[C@@]5(C)CC[C@H](OC(=O)CC(C)(C)C(=O)O)C(C)(C)[C@@H]5CC[C@@]4(C)[C@]3(C)CC[C@@]2([C@@H](O)CN(CCN(C)C)Cc2ccc(F)cc2)CC1=O [Example 76, 4-(((3aR,5aR,5bR,7aR,9S,11aR,11bR,13aS)-3a-((R)-2-((2-(dimethylamino)ethyl)(4-fluorobenzyl)amino)-1-hydroxyethyl)-1-isopropyl-5a,5b,8,8,11a-pentamethyl-2-oxo-3,3a,4,5,5a,5b,6,7,7a,8,9,10,11,11a,11b,12,13,13a-octadecahydro-2H-cyclopenta[a]chrysen-9-yl)oxy)-2,2-dimethyl-4-oxobutanoic acid]	0.7 nM
CC(C)C1=C2[C@H]3CC[C@@H]4[C@@]5(C)CC[C@H](OC(=O)CC(C)(C)C(=O)O)C(C)(C)[C@@H]5CC[C@@]4(C)[C@]3(C)CC[C@@]2([C@@H](O)CNCc2ccc(F)cc2)CC1=O [Example 77, 4-(((3aR,5aR,5bR,7aR,9S,11aR,11bR,13aS)-3a-((R)-2-((4-fluorobenzyl)amino)-1-hydroxyethyl)-1-isopropyl-5a,5b,8,8,11a-pentamethyl-2-oxo-3,3a,4,5,5a,5b,6,7,7a,8,9,10,11,11a,11b,12,13,13a-octadecahydro-2H-cyclopenta[a]chrysen-9-yl)oxy)-2,2-dimethyl-4-oxobutanoic acid]	4.7 nM
CC(C)C1=C2[C@H]3CC[C@@H]4[C@@]5(C)CC[C@H](OC(=O)CC(C)(C)C(=O)O)C(C)(C)[C@@H]5CC[C@@]4(C)[C@]3(C)CC[C@@]2([C@H](O)CN(CCN(C)C)Cc2ccc(F)cc2)CC1=O [Example 78, 4-(((3aR,5aR,5bR,7aR,9S,11aR,11bR,13aS)-3a-((S)-2-((2-(dimethylamino)ethyl)(4-fluorobenzyl)amino)-1-hydroxyethyl)-1-isopropyl-5a,5b,8,8,11a-pentamethyl-2-oxo-3,3a,4,5,5a,5b,6,7,7a,8,9,10,11,11a,11b,12,13,13a-octadecahydro-2H-cyclopenta[a]chrysen-9-yl)oxy)-2,2-dimethyl-4-oxobutanoic acid]	2.1 nM
CC(C)C1=C2[C@H]3CC[C@@H]4[C@@]5(C)CC[C@H](OC(=O)CC(C)(C)C(=O)O)C(C)(C)[C@@H]5CC[C@@]4(C)[C@]3(C)CC[C@@]2([C@H](O)CNCc2ccc(F)cc2)CC1=O [Example 79, 4-(((3aR,5aR,5bR,7aR,9S,11aR,11bR,13aS)-3a-((S)-2-((4-fluorobenzyl)amino)-1-hydroxyethyl)-1-isopropyl-5a,5b,8,8,11a-pentamethyl-2-oxo-3,3a,4,5,5a,5b,6,7,7a,8,9,10,11,11a,11b,12,13,13a-octadecahydro-2H-cyclopenta[a]chrysen-9-yl)oxy)-2,2-dimethyl-4-oxobutanoic acid]	14.7 nM
CC(C)C1=C2[C@H]3CC[C@@H]4[C@@]5(C)CC[C@H](OC(=O)CC(C)(C)C(=O)O)C(C)(C)[C@@H]5CC[C@@]4(C)[C@]3(C)CC[C@@]2([C@@H](O)CN(CCN(C)C)Cc2ccc(Cl)cc2Cl)CC1=O [Example 80, 4-{[(1R,2R,5R,10S,13R,14R, 17S,19R)-5-[(1R)-2-{[(2,4-dichlorophenyl)methyl][2-(dimethylamino)ethyl]amino}-1-hydroxyethyl]-1,2,14,18,18-pentamethyl-7-oxo-8-(propan-2-yl)pentacyclo[11.8.0.0^ {2,10}.0^{5,9}.0^{14,19}]henicos-8-en-17-yl]oxy}-2,2-dimethyl-4-oxobutanoic acid]	2.4 nM
